The text below walks through data of ChEMBL document CHEMBL1201862, “PubChem BioAssay data set” (2004).

Test systems include K562; SF-295; SF-539; HCC 2998; HCT-15; HT-29; 786-0; DU-145; MDA-MB-435; UACC-257; SNB-19; CAKI-1; M14; T47D; CCRF-CEM; HOP-62; SK-MEL-2; NCI/ADR-RES; NCI-H460.
Common to all, as to test: inhibition of tumour cell growth, NCI panel, 48 h

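Values below derive from 48-hour exposures of cells grown in 96-well plates, with endpoints linearly interpolated between the two concentrations bracketing the appropriate inhibition level. GI50 is the concentration that inhibits growth by half.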 Activity calls are given as the source filed them. No stated cut-off is given here; in the data, active = GI50 up to about 1.1 µM and inactive = higher.

For `CCNc1ccc2c(c1)Cc1ccccc1-2`, the GI50 in the assay with K562 was 27.6 µM (inactive); with SF-295, 47.6 µM (inactive); in the assay with SF-539 it was 43.8 µM (inactive); in the assay with HCC 2998, 9.71 µM (inactive); in the assay with HCT-15, 7.38 µM; with HT-29, 50.5 µM (inactive). Moreover, the GI50 in the assay with 786-0 was > 100 µM (inactive); in the assay on DU-145, 59.8 µM (inactive); with MDA-MB-435, 49.5 µM (inactive); in the assay on UACC-257 it was 49.7 µM (inactive); with SNB-19, 48.1 µM (inactive); in the assay with CAKI-1 it was 27.2 µM (inactive). Also, the GI50 with M14 is 66.5 µM (inactive); in the assay with T47D, > 100 µM (inactive); in the assay on CCRF-CEM it was > 100 µM (inactive); with HOP-62, > 100 µM (inactive); in the assay with SK-MEL-2 it was 56.1 µM (inactive); with NCI/ADR-RES, > 100 µM (inactive). Further, in the assay with NCI-H460, the GI50 was 18 µM (inactive).
Turning to `O=C(O)C1=C(C(=O)O)N(c2ccncc2)C(c2ccco2)=CC1c1ccccc1[N+](=O)[O-]` (centres undefined), the GI50 is 2.85 µM (inactive) in the assay with K562; 12.2 µM (inactive) with SF-295; 2.11 µM (inactive) in the assay with SF-539; 1.9 µM (inactive) with HCC 2998; 1.81 µM with HCT-15; 2.18 µM (inactive) in the assay on HT-29. Also, the GI50 in the assay on 786-0 is 2.04 µM (inactive); in the assay on DU-145, 12.1 µM (inactive); in the assay on MDA-MB-435 it was 13.5 µM (inactive); with UACC-257, 2.22 µM (inactive); with SNB-19 it was 12.9 µM (inactive); in the assay on CAKI-1, 15.5 µM (inactive). Moreover, the GI50 is 7.01 µM (inactive) in the assay on M14; 7.82 µM (inactive) in the assay with T47D; 2.69 µM (inactive) with CCRF-CEM; 13.4 µM (inactive) in the assay with HOP-62; 17.8 µM (inactive) in the assay with SK-MEL-2; 22.6 µM (inactive) with NCI/ADR-RES. Further, in the assay on NCI-H460, the GI50 is 12.6 µM (inactive).
On to `COc1cc2c(c(OC)c1OC)C(=O)[C@@H]1[C@H]2N1C(=O)NCCCl`, for which the GI50 in the assay with K562 is 45.8 µM (inactive); in the assay on SF-295, > 100 µM (inactive); in the assay on SF-539, 72.4 µM (inactive); in the assay with HCC 2998, > 100 µM (inactive); with HCT-15, 36.1 µM; with HT-29, 36 µM (inactive). Further, the GI50 in the assay on 786-0 was > 100 µM (inactive); in the assay with DU-145, 66.8 µM (inactive); with MDA-MB-435, 32.6 µM (inactive); in the assay with UACC-257 it was 79.8 µM (inactive); with SNB-19, > 100 µM (inactive); with CAKI-1, 56.8 µM (inactive). Also, the GI50 with M14 is 50.4 µM (inactive); with T47D, 48.3 µM (inactive); with CCRF-CEM it was 30.1 µM (inactive); in the assay on HOP-62 it was > 100 µM (inactive); in the assay with SK-MEL-2 it was > 100 µM (inactive); in the assay with NCI/ADR-RES, > 100 µM (inactive). Further, the GI50 in the assay with NCI-H460 was 40.6 µM (inactive).
`C[C@H](N)C(=O)Nc1ccc(-c2nc3ccccc3s2)cc1`: the GI50 with K562 was 21.5 µM (inactive); in the assay with SF-295, 18.7 µM (inactive); in the assay on SF-539 it was 36.9 µM (inactive); in the assay on HCC 2998, 20.9 µM (inactive); in the assay with HCT-15 it was 17.7 µM; with HT-29, 20.9 µM (inactive). Further, the GI50 in the assay with 786-0 was 15.7 µM (inactive); with DU-145 it was 18.4 µM (inactive); in the assay with MDA-MB-435, 16.9 µM (inactive); in the assay on UACC-257, 39.1 µM (inactive); in the assay on SNB-19, 22.4 µM (inactive); in the assay on CAKI-1 it was 17.1 µM (inactive). The GI50 with M14 was 10.9 µM (inactive); in the assay with T47D, 17.5 µM (inactive); with CCRF-CEM it was 10.2 µM (inactive); in the assay on HOP-62, 26.5 µM (inactive); in the assay with SK-MEL-2, 28.6 µM (inactive); with NCI/ADR-RES, 28.6 µM (inactive). Moreover, the GI50 in the assay with NCI-H460 was 16.9 µM (inactive).
With `O=C1c2c(Br)sc(Br)c2[C@@H](NC(=O)C(F)(F)F)C1Br` (some centres undefined), the GI50 with K562 was 1.93 µM (inactive); with SF-295, 16.8 µM (inactive); in the assay on SF-539, 2.73 µM (inactive); in the assay with HCC 2998, 3.1 µM (inactive); in the assay with HCT-15, 1.83 µM; with HT-29 it was 2.37 µM (inactive). Also, the GI50 is 2.13 µM (inactive) in the assay with 786-0; 6.71 µM (inactive) with DU-145; 2.13 µM (inactive) in the assay with MDA-MB-435; 1.51 µM (inactive) with UACC-257; 13 µM (inactive) in the assay with SNB-19; 3.6 µM (inactive) in the assay with CAKI-1. The GI50 in the assay on M14 was 2.34 µM (inactive); with T47D it was 4.11 µM (inactive); in the assay on CCRF-CEM it was 1.88 µM (inactive); with HOP-62 it was 12.9 µM (inactive); in the assay on SK-MEL-2, 5.82 µM (inactive); in the assay on NCI/ADR-RES, 3.32 µM (inactive). Besides, the GI50 in the assay on NCI-H460 is 11.7 µM (inactive).
For the compound `CN1CCN(c2ccc3nc(-c4cc(O)c5c(nc(CO)n5C)c4O)[nH]c3n2)CC1`, the GI50 is 28.8 µM (inactive) with K562; > 100 µM (inactive) with SF-295; 17.4 µM (inactive) in the assay on SF-539; 39.9 µM (inactive) with HCC 2998; over 100 µM in the assay with HCT-15; 31.3 µM (inactive) in the assay with HT-29. For the same compound, the GI50 in the assay on 786-0 was 52.6 µM (inactive); with DU-145, 43.8 µM (inactive); in the assay on MDA-MB-435, 18.7 µM (inactive); in the assay on UACC-257 it was 34.7 µM (inactive); in the assay on SNB-19, 52.2 µM (inactive); with CAKI-1, > 100 µM (inactive). For the same compound, the GI50 was 34.7 µM (inactive) with M14; 18.7 µM (inactive) with T47D; 18.8 µM (inactive) in the assay on CCRF-CEM; 52 µM (inactive) with HOP-62; 11 µM (inactive) in the assay with SK-MEL-2; > 100 µM (inactive) with NCI/ADR-RES. Moreover, in the assay with NCI-H460, the GI50 is 55.6 µM (inactive).
In the case of `C[n+]1c(-c2ccc(NC(=O)c3ccc(C(=O)Nc4ccc(-c5cn6ccccc6[n+]5C)cc4)cc3)cc2)cn2ccccc21`, the GI50 in the assay with K562 is > 100 µM (inactive); in the assay on SF-295, 47.5 µM (inactive); with SF-539 it was > 70.5 µM (inactive); with HCC 2998, > 100 µM (inactive); in the assay on HCT-15, over 100 µM; in the assay on HT-29, > 100 µM (inactive). The GI50 in the assay with 786-0 is 29 µM (inactive); with DU-145, > 100 µM (inactive); with MDA-MB-435 it was > 67.3 µM (inactive); in the assay with UACC-257, > 100 µM (inactive); in the assay on SNB-19, > 100 µM (inactive); in the assay with CAKI-1, > 100 µM (inactive). Also, the GI50 in the assay on M14 was > 100 µM (inactive); in the assay on T47D, > 100 µM (inactive); in the assay with CCRF-CEM, > 65.6 µM (inactive); in the assay on HOP-62, > 100 µM (inactive); in the assay on SK-MEL-2 it was > 100 µM (inactive); in the assay on NCI/ADR-RES, > 100 µM (inactive). For the same compound, in the assay on NCI-H460, the GI50 was > 100 µM (inactive).
On to `COc1ccc(-c2cc(=O)c3c(OC)c(OC)c(OC)cc3o2)cc1`, for which the GI50 was 34.4 µM (inactive) in the assay on K562; 24.5 µM (inactive) with SF-295; 81.8 µM (inactive) in the assay with SF-539; 16.8 µM (inactive) in the assay on HCC 2998; 32.7 µM with HCT-15; 28.4 µM (inactive) with HT-29. Besides, the GI50 in the assay on 786-0 was 19.9 µM (inactive); with DU-145, 25.5 µM (inactive); in the assay with MDA-MB-435 it was 32.2 µM (inactive); in the assay on UACC-257, 40.8 µM (inactive); with SNB-19 it was 45 µM (inactive); with CAKI-1, 68.7 µM (inactive). Moreover, the GI50 was 54.8 µM (inactive) in the assay on M14; 17.8 µM (inactive) in the assay on T47D; 14 µM (inactive) in the assay with CCRF-CEM; 21.1 µM (inactive) in the assay on HOP-62; 21.1 µM (inactive) with SK-MEL-2; 28.2 µM (inactive) with NCI/ADR-RES. In the assay with NCI-H460, the GI50 was 24 µM (inactive).
On to `C=C(C(=O)OC)c1cc2ccccc2n1S(=O)(=O)c1ccccc1`, for which the GI50 in the assay on K562 was 2.34 µM (inactive); in the assay with SF-295 it was 7.66 µM (inactive); in the assay with SF-539 it was 1.62 µM (inactive); in the assay with HCC 2998, 4 µM (inactive); in the assay with HCT-15, 1.76 µM; with HT-29 it was 2.91 µM (inactive). In addition, the GI50 in the assay on 786-0 was 6.05 µM (inactive); in the assay with DU-145, 2.69 µM (inactive); with MDA-MB-435 it was 2.55 µM (inactive); in the assay with UACC-257, 4.86 µM (inactive); in the assay with SNB-19, 12.1 µM (inactive); with CAKI-1 it was 0.82 µM (active). The GI50 is 2.67 µM (inactive) in the assay on M14; 1.7 µM (inactive) with T47D; 1.24 µM (inactive) in the assay with CCRF-CEM; 3.43 µM (inactive) with HOP-62; 2.53 µM (inactive) with SK-MEL-2; 3.37 µM (inactive) in the assay with NCI/ADR-RES. Moreover, the GI50 in the assay with NCI-H460 was 2.21 µM (inactive).
For `COc1cc2c(cc1OC)OC(c1c(OC)ccc(OC)c1O)CC2` (centres undefined), the GI50 with K562 was > 100 µM (inactive); in the assay with SF-295 it was 71.3 µM (inactive); in the assay on SF-539, 73.6 µM (inactive); in the assay with HCC 2998, > 100 µM (inactive); in the assay with HCT-15, over 100 µM; in the assay with HT-29, > 100 µM (inactive). For the same compound, the GI50 in the assay on 786-0, in the assay with DU-145, in the assay with MDA-MB-435, in the assay with UACC-257, with SNB-19 and with CAKI-1 was > 100 µM (inactive) in each case. Moreover, the GI50 in the assay with M14 was > 100 µM (inactive); with T47D, 65.8 µM (inactive); with CCRF-CEM it was 22.9 µM (inactive); in the assay on HOP-62, > 100 µM (inactive); in the assay with SK-MEL-2, > 100 µM (inactive); in the assay on NCI/ADR-RES, > 100 µM (inactive). Besides, the GI50 in the assay with NCI-H460 was > 100 µM (inactive).
Consider `CN(N=O)C(=O)NNC(=O)N(C)N=O`, for which the GI50 with K562 is 66.1 µM (inactive); with SF-295, 94.6 µM (inactive); with SF-539, 49.1 µM (inactive); in the assay with HCC 2998, > 100 µM (inactive); in the assay with HCT-15, 37.9 µM; with HT-29, > 100 µM (inactive). Also, the GI50 in the assay on 786-0 was 48.3 µM (inactive); with DU-145, > 100 µM (inactive); in the assay on MDA-MB-435 it was > 100 µM (inactive); in the assay on UACC-257, > 100 µM (inactive); with SNB-19, > 100 µM (inactive); with CAKI-1 it was > 100 µM (inactive). The GI50 was 93.5 µM (inactive) with M14; 79.1 µM (inactive) in the assay on T47D; 31.7 µM (inactive) with CCRF-CEM; > 100 µM (inactive) in the assay on HOP-62; 73.3 µM (inactive) in the assay with SK-MEL-2; > 100 µM (inactive) in the assay on NCI/ADR-RES. For the same compound, the GI50 in the assay with NCI-H460 was 42.4 µM (inactive).
